PMC12564302, “Discovery of N-Hydroxypyridinedione-Based Inhibitors of HBV RNase H: Design, Synthesis, and Extended SAR Studies” (International Journal of Molecular Sciences, 2025)
Where two headings read alike, the source gives them in different places.

How the values were obtained:
[1] = test system: HBV replication in HepDES19 cells; details: cited from earlier work
HepDES19 cells = details: cited from earlier work
MTS cytotoxicity assay = assay type: cell-based; details: human, HepDES19 cells, pH 7.4
Experimental: (§1) HepDES19 cells are a HepG2 cell-line derivative that has been stably transfected with an HBV genotype D genome containing a tetracycline repressible promoter. HepDES19 cells were maintained on collagen-coated plates in Dulbecco’s modified Eagle’s medium (DMEM/F12) (Cytiva Life Sciences, Marlborough, MA, USA) supplemented with 10% fetal bovine serum (FBS), streptomycin (100 µg/mL), and penicillin (100 IU/mL), and incubated at 37 °C with 5% CO2 and saturating humidity. Cells were cultured with 1 µg/mL tetracycline to inhibit the expression of the stably integrated HBV genome, and HBV replication was activated upon removal of tetracycline from the culture medium.
Cell viability was assessed using the CellTiter 96^TM Aqueous Non-Radioactive Cell Proliferation assay (MTS) (Promega, Madison, WI, USA) as described previously. HepDES19 cells were seeded in 96 well plates at 1 × 10^4 cells/well for 48 h. Cells were then incubated with serial diluted compound, with a final concentration of 1% DMSO, for 72 h. Following compound incubation, background absorbance values were subtracted, and the data were converted into percent cell viability. The cytotoxic concentration 50% (CC50) values were calculated using GraphPad Prism’s four-parameter log (inhibitor) versus response algorithm, with the bottom value set to zero. Three or more replicate assays were performed on different days.

[2] = Parallel artificial membrane permeability assay; assay type: in vitro ADME; details: PAMPA, pH 7.4, PAMPA
Experimental: The evaluation of apparent passive permeability (Papp) at pH 7.4 was performed using a donor/acceptor cassette (Innovative Laboratory Products, Phoenix, AZ, USA and Sigma Aldrich, Burlington, MA, USA), which simulates the apical and basolateral sides of the small intestine epithelium, as previously described. An artificial membrane made of 1% w/v lecithin/dodecane was applied to the poly (vinylidene fluoride) (PVDF) membrane filter and allowed to dry. Following drying, compounds (200 µM) were diluted in buffer at pH 7.4 and added to the donor side of the cassette. The same pH buffer was added on the acceptor side of the cassette, after which it was assembled and incubated at room temperature with shaking at 250 rpm for 2 h, before reading the absorbance of 100 µL from the acceptor well on a plate reader between 230 and 700 nm. The Papp (cm/s) values for compounds were determined by normalizing to the compound absorbance at equilibrium using the peak absorbance point for each compound, buffer volume, incubation time, and membrane porosity. Two or more replicate assays were conducted on different days.

Solubility limit assay = assay type: physicochemical; details: DMEM-F12 without phenol red with 10% FBS, pH 7.4, plasma or biological fluid, kinetic from dmso stock
Experimental: Solubility limits of compounds were tested as previously reported in DMEM-F12 without phenol red (Gibco, Grand Island, NY, USA) but with the media supplemented with 10% FBS (pH 7.4) to mimic cell culture experiments. In a 384-well optically clear plate, compounds were serially diluted in pH 7.4 buffer (upper limit 200 µM, DMSO 1%) then read at 620 nm. Solubility limits were determined by plotting compound concentration (µM) against optical density (OD) and identifying an inflexion point. The inflexion point is defined by a substantial increase in OD brought on by increasing turbidity, and the compound concentration at this point is known as the solubility limit. Each compound had at least two replicate assays performed on different days.

[3] = test system: HBV replication in HepDES19 cells; assay: qPCR HBV replication inhibition assay; assay type: cell-based, HBV genotype D; details: 72 h, (+) polarity DNA strand, pH 7.4, read-out: EC50
Experimental: as §1
HBV replication inhibition in HepDES19 cells was assessed using a strand-preferential quantitative PCR assay as previously described. HepDES19 cells were seeded in 96 well plates at 4 × 10^4 cells/well for 48 h followed by the addition of serial diluted compound with a final concentration of 1% DMSO for 72 h, after which cells were lysed, and qPCR was performed as described in Li et al.. Effective concentration 50% (EC50) values were calculated from data for the (+) polarity DNA strand data using GraphPad Prism version 10’s four-parameter log (inhibitor) versus response algorithm, with the bottom value set to zero. Three or more replicate assays were performed on different days.

[4] = test system: HBV RNase H carrying the P790L mutation; assay: Recombinant RNase H biochemical assay (FAM/IowaBlack RNA:DNA heteroduplex); details: qualitative assay
Experimental: HBV RNase H carrying the P790L mutation that is needed to stabilize the recombinant enzyme was purified from E. coli, and RNase H assays in which an RNA:DNA heteroduplex was incubated with the recombinant enzyme were performed. The RNA strand is FAM-labelled, and the DNA strand carries an IowaBlack quencher. Cleavage of the RNA strand releases the FAM moiety from quenching, causing an increase in fluorescence. Performance limitations with the enzyme limit this assay to just qualitative interpretation.

[5] = Figure 1, earlier HBV RNase H inhibitors
[6] = pH 7.4, 200 µM, 2 h, read-out: Papp
[7] = pH 7.4, read-out: Papp Interpretation
[8] = pH 7.4, DMEM-F12 with 10% FBS, 1% DMSO, upper limit 200 µM, read-out: Solubility Limit
[9] = pH 7.4, read-out: Solubility Limit Interpretation
[10] = Hepatitis B virus, HepDES19, 72 h, pH 7.4, HepDES19 cells
[11] = pH 7.4, previously published compounds
[12] = pH 7.4, previously published compound
[13] = pH 7.4, previously published compound, Table 1

COc1ccc(CON=C(C)c2c(C)cc(=O)n(O)c2O)cc1 [A24]
EC50 [1, 5]: 0.29 µM | CC50 (HepDES19 cells; [5]): 102 µM

CC(=Nc1ccc(F)c(F)c1)c1c(C)cc(=O)n(O)c1O [Compound 22, 5-(1-((3,4-difluorophenyl)imino)ethyl)-1,6-dihydroxy-4-methylpyridin-2(1H)-one]
CC50 at 72 h (MTS cytotoxicity assay): 100 µM | Papp at 2 h, 200 µM [2, 6]: 29.9 nm/s | Papp at 2 h, 200 µM [2, 7]: > 10 nm/s | solubility (Solubility limit assay; [8]): > 200 µM | solubility (Solubility limit assay; [9]): > 100 µM | EC50 ([3]; HepDES19 cells): 0.89 ± 0.4 µM | EC50 [3, 10]: 0.9 µM | suppression of RNase H activity ([4]; at 100 µM): ~ 50% | suppression of RNase H activity (in words) [4]: dose-dependent suppression of RNase H activity

CC(=NCc1cccc(F)c1)c1c(C)cc(=O)n(O)c1O [Compound 39, 5-(1-((3-fluorobenzyl)imino)ethyl)-1,6-dihydroxy-4-methylpyridin-2(1H)-one]
CC50 at 72 h (MTS cytotoxicity assay): 19.3 ± 10.5 µM | Papp at 2 h, 200 µM [2, 6]: 18.9 nm/s | Papp at 2 h, 200 µM [2, 7]: > 10 nm/s | solubility (Solubility limit assay; [8]): > 200 µM | solubility (Solubility limit assay; [9]): > 100 µM | EC50 [3, 10]: 27.6 ± 3.7 µM

CC(=NCc1ccc(F)cc1)c1c(C)cc(=O)n(O)c1O [Compound 40, 5-(1-((4-fluorobenzyl)imino)ethyl)-1,6-dihydroxy-4-methylpyridin-2(1H)-one]
CC50 at 72 h (MTS cytotoxicity assay): 15.4 ± 7.4 µM | Papp at 2 h, 200 µM [2, 6]: 11 nm/s | Papp at 2 h, 200 µM [2, 7]: > 10 nm/s | solubility (Solubility limit assay; [8]): > 200 µM | solubility (Solubility limit assay; [9]): > 100 µM | EC50 [3, 10]: 16.5 ± 3.5 µM

CC(=NCc1ccc(F)c(F)c1)c1c(C)cc(=O)n(O)c1O [Compound 41, 5-(1-((3,4-difluorobenzyl)imino)ethyl)-1,6-dihydroxy-4-methylpyridin-2(1H)-one]
CC50 at 72 h (MTS cytotoxicity assay): 23.9 ± 11.7 µM | Papp at 2 h, 200 µM [2, 6]: 25.4 nm/s | Papp at 2 h, 200 µM [2, 7]: > 10 nm/s | solubility (Solubility limit assay; [8]): > 200 µM | solubility (Solubility limit assay; [9]): > 100 µM | EC50 [3, 10]: 10.7 ± 0.5 µM

CC(=NCc1cc(F)cc(F)c1)c1c(C)cc(=O)n(O)c1O [Compound 42, 5-(1-((3,5-difluorobenzyl)imino)ethyl)-1,6-dihydroxy-4-methylpyridin-2(1H)-one]
CC50 at 72 h (MTS cytotoxicity assay): 82.9 ± 24.6 µM | Papp at 2 h, 200 µM [2, 6]: 15.3 nm/s | Papp at 2 h, 200 µM [2, 7]: > 10 nm/s | solubility (Solubility limit assay; [8]): > 200 µM | solubility (Solubility limit assay; [9]): > 100 µM | EC50 [3, 10]: 73.7 ± 26.3 µM

CC(=NCCOc1ccc(Cl)cc1)c1c(C)cc(=O)n(O)c1O [Compound 43, 5-(1-((2-(4-chlorophenoxy)ethyl)imino)ethyl)-1,6-dihydroxy-4-methylpyridin-2(1H)-one]
CC50 at 72 h (MTS cytotoxicity assay): 30.1 ± 12.5 µM | Papp at 2 h, 200 µM [2, 6]: 8.6 nm/s | Papp at 2 h, 200 µM [2, 7]: < 10 nm/s | solubility (Solubility limit assay; [8]): > 200 µM | solubility (Solubility limit assay; [9]): > 100 µM | EC50 [3, 10]: 17.2 ± 6.6 µM

C/C(=N\OCc1ccccc1Br)c1c(C)cc(=O)n(O)c1O [Compound 46]
EC50 [1, 11]: 2 ± 1.6 µM | CC50 (HepDES19 cells; [11]): 80.8 ± 27.5 µM

C/C(=N\OCc1cccc(Br)c1)c1c(C)cc(=O)n(O)c1O [Compound 47]
EC50 [1, 11]: 0.52 ± 0.33 µM | CC50 (HepDES19 cells; [11]): 78.5 ± 32.4 µM

C/C(=N\OCc1ccc(Br)cc1)c1c(C)cc(=O)n(O)c1O [Compound 48]
EC50 [1, 11]: 1.13 ± 0.19 µM | CC50 (HepDES19 cells; [11]): 76.7 ± 30.3 µM

C/C(=N\OCc1ccccc1Cl)c1c(C)cc(=O)n(O)c1O [Compound 49]
EC50 [1, 11]: 0.24 ± 0.09 µM

C/C(=N\OCc1cccc(Cl)c1)c1c(C)cc(=O)n(O)c1O [Compound 50]
EC50 [1, 11]: 1.35 ± 1.03 µM | CC50 (HepDES19 cells; [11]): 56.9 ± 31.1 µM

C/C(=N\OCc1ccc(Cl)cc1)c1c(C)cc(=O)n(O)c1O [Compound 51]
EC50 [1, 11]: 0.36 ± 0.24 µM | CC50 (HepDES19 cells; [11]): 46.6 ± 13.6 µM

C/C(=N\OCc1ccccc1F)c1c(C)cc(=O)n(O)c1O [Compound 52]
EC50 [1, 12]: 0.32 ± 0.2 µM | CC50 (HepDES19 cells; [12]): 90 ± 6 µM

C/C(=N\OCc1cccc(F)c1)c1c(C)cc(=O)n(O)c1O [Compound 53]
EC50 [1, 11]: 0.06 ± 0.01 µM | CC50 (HepDES19 cells; [11]): 73.9 ± 28.6 µM

C/C(=N\c1ccccc1N)c1c(C)cc(=O)n(O)c1O [Compound 54]
EC50 [1, 13]: 0.69 ± 0.2 µM | CC50 (HepDES19 cells; [13]): 15 ± 7 µM
